From ChEMBL document CHEMBL3885881, “DrugMatrix”

Species: Rattus norvegicus
Assay: DrugMatrix - Regimen: Daily Repeat
Assay type: toxicity, organism-based, Sprague-Dawley
Design: regimen Daily Repeat, gender Male, age 6-8 weeks
Settings: in vivo, po, route oral GAVAGE, vehicle .5 % CMC; for ABSOLUTE BASOPHIL / ABSOLUTE EOSINOPHIL / ABSOLUTE LYMPHOCYTE / ABSOLUTE MONOCYTE / ABSOLUTE SEGMENTED NEUTROPHIL / BASOPHIL / EOSINOPHIL / ERYTHROCYTE COUNT / HEMATOCRIT / HEMOGLOBIN / LEUKOCYTE COUNT / LYMPHOCYTE / MEAN CORPUSCULAR HEMOGLOBIN / MEAN CORPUSCULAR HEMOGLOBIN CONCENTRATION / MEAN CORPUSCULAR VOLUME / MONOCYTE / NEUTROPHIL / NUCLEATED RED BLOOD CELLS / PLATELET COUNT: tissue Blood; for ALANINE AMINOTRANSFERASE / ALBUMIN / ALKALINE PHOSPHATASE / ASPARTATE AMINOTRANSFERASE / BLOOD UREA NITROGEN / CARBON DIOXIDE / CHLORIDE / CHOLESTEROL / CREATINE PHOSPHOKINASE / CREATININE / GLUCOSE / LACTATE DEHYDROGENASE / LIPASE / PHOSPHORUS / POTASSIUM / SODIUM / TOTAL BILIRUBIN / TOTAL PROTEIN / URIC ACID: tissue Plasma
[1] = 0 mg/kg, 72 h, dose level Control, time 3 day
[2] = 0 mg/kg, 120 h, dose level Control, time 5 day
[3] = 10 mg/kg, 72 h, dose level Low, time 3 day

CC(C)(C#N)c1cc(Cn2cncn2)cc(C(C)(C)C#N)c1 [ANASTROZOLE]
ABSOLUTE BASOPHIL [1]: 0 CELLS/uL
ABSOLUTE EOSINOPHIL [1]: 0 CELLS/uL
ABSOLUTE LYMPHOCYTE [1]: 10913.67 CELLS/uL
ABSOLUTE MONOCYTE [1]: 85.33 CELLS/uL
ABSOLUTE SEGMENTED NEUTROPHIL [1]: 1401 CELLS/uL
BASOPHIL [1]: 0%
EOSINOPHIL [1]: 0%
ERYTHROCYTE COUNT [1]: 5.57 x10E6/uL
HEMATOCRIT [1]: 35.58%
HEMOGLOBIN [1]: 13.8 G/DL
LEUKOCYTE COUNT [1]: 12.4 x10E3/uL
LYMPHOCYTE [1]: 88%
MEAN CORPUSCULAR HEMOGLOBIN [1]: 24.78 pg
MEAN CORPUSCULAR HEMOGLOBIN CONCENTRATION [1]: 38.82 G/DL
MEAN CORPUSCULAR VOLUME [1]: 63.88 fL
MONOCYTE [1]: 0.67%
NEUTROPHIL [1]: 11.33%
NUCLEATED RED BLOOD CELLS [1]: 0 /100WBC
PLATELET COUNT [1]: 1162.33 x10E3/uL
ALANINE AMINOTRANSFERASE [1]: 53 u/L
ALBUMIN [1]: 4.17 G/DL
ALKALINE PHOSPHATASE [1]: 374.5 u/L
ASPARTATE AMINOTRANSFERASE [1]: 89.5 u/L
BLOOD UREA NITROGEN [1]: 16.33 mg/dL
CARBON DIOXIDE [1]: 29.17 mmol/L
CHLORIDE [1]: 97.67 MEQ/L
CHOLESTEROL [1]: 77 mg/dL
CREATINE PHOSPHOKINASE [1]: 464.83 u/L
CREATININE [1]: 0.14 mg/dL
GLUCOSE [1]: 164 mg/dL
LACTATE DEHYDROGENASE [1]: 155.5 u/L
LIPASE [1]: 9.17 u/L
PHOSPHORUS [1]: 12.4 mg/dL
POTASSIUM [1]: 6.91 MEQ/L
SODIUM [1]: 141.47 MEQ/L
TOTAL BILIRUBIN [1]: 0.2 mg/dL
TOTAL PROTEIN [1]: 5.95 G/DL
URIC ACID [1]: 1.72 mg/dL
ABSOLUTE BASOPHIL [2]: 0 CELLS/uL
ABSOLUTE EOSINOPHIL [2]: 20.5 CELLS/uL
ABSOLUTE LYMPHOCYTE [2]: 13871.67 CELLS/uL
ABSOLUTE MONOCYTE [2]: 60.5 CELLS/uL
ABSOLUTE SEGMENTED NEUTROPHIL [2]: 980.67 CELLS/uL
BASOPHIL [2]: 0%
EOSINOPHIL [2]: 0.17%
ERYTHROCYTE COUNT [2]: 5.65 x10E6/uL
HEMATOCRIT [2]: 35.63%
HEMOGLOBIN [2]: 14.08 G/DL
LEUKOCYTE COUNT [2]: 14.93 x10E3/uL
LYMPHOCYTE [2]: 92.83%
MEAN CORPUSCULAR HEMOGLOBIN [2]: 24.97 pg
MEAN CORPUSCULAR HEMOGLOBIN CONCENTRATION [2]: 39.55 G/DL
MEAN CORPUSCULAR VOLUME [2]: 63.13 fL
MONOCYTE [2]: 0.33%
NEUTROPHIL [2]: 6.67%
NUCLEATED RED BLOOD CELLS [2]: 0 /100WBC
PLATELET COUNT [2]: 1248.17 x10E3/uL
ALANINE AMINOTRANSFERASE [2]: 45.17 u/L
ALBUMIN [2]: 4.27 G/DL
ALKALINE PHOSPHATASE [2]: 405.67 u/L
ASPARTATE AMINOTRANSFERASE [2]: 74.17 u/L
BLOOD UREA NITROGEN [2]: 15.5 mg/dL
CARBON DIOXIDE [2]: 30.17 mmol/L
CHLORIDE [2]: 100.67 MEQ/L
CHOLESTEROL [2]: 57 mg/dL
CREATINE PHOSPHOKINASE [2]: 239.5 u/L
CREATININE [2]: 0.17 mg/dL
GLUCOSE [2]: 165.67 mg/dL
LACTATE DEHYDROGENASE [2]: 90.5 u/L
LIPASE [2]: 8.83 u/L
PHOSPHORUS [2]: 12.32 mg/dL
POTASSIUM [2]: 7.03 MEQ/L
SODIUM [2]: 142.65 MEQ/L
TOTAL BILIRUBIN [2]: 0.18 mg/dL
TOTAL PROTEIN [2]: 6.03 G/DL
URIC ACID [2]: 1.98 mg/dL
ABSOLUTE BASOPHIL [3]: 0 CELLS/uL
ABSOLUTE EOSINOPHIL [3]: 62 CELLS/uL
ABSOLUTE LYMPHOCYTE [3]: 13335.67 CELLS/uL
ABSOLUTE MONOCYTE [3]: 144.33 CELLS/uL
ABSOLUTE SEGMENTED NEUTROPHIL [3]: 2091.33 CELLS/uL
BASOPHIL [3]: 0%
EOSINOPHIL [3]: 0.33%
ERYTHROCYTE COUNT [3]: 5.84 x10E6/uL
HEMATOCRIT [3]: 36.23%
HEMOGLOBIN [3]: 14.47 G/DL
LEUKOCYTE COUNT [3]: 15.63 x10E3/uL
LYMPHOCYTE [3]: 85%
MEAN CORPUSCULAR HEMOGLOBIN [3]: 24.77 pg
MEAN CORPUSCULAR HEMOGLOBIN CONCENTRATION [3]: 39.93 G/DL
MEAN CORPUSCULAR VOLUME [3]: 62 fL
MONOCYTE [3]: 1%
NEUTROPHIL [3]: 13.67%
NUCLEATED RED BLOOD CELLS [3]: 0 /100WBC
PLATELET COUNT [3]: 1170.33 x10E3/uL
ALANINE AMINOTRANSFERASE [3]: 55.67 u/L
ALBUMIN [3]: 4.13 G/DL
ALKALINE PHOSPHATASE [3]: 405 u/L
ASPARTATE AMINOTRANSFERASE [3]: 89.67 u/L
BLOOD UREA NITROGEN [3]: 18.67 mg/dL
CARBON DIOXIDE [3]: 29 mmol/L
CHLORIDE [3]: 97 MEQ/L
CHOLESTEROL [3]: 77 mg/dL
CREATINE PHOSPHOKINASE [3]: 289.33 u/L
CREATININE [3]: 0.1 mg/dL
GLUCOSE [3]: 149.33 mg/dL
LACTATE DEHYDROGENASE [3]: 219.33 u/L
LIPASE [3]: 9.33 u/L
PHOSPHORUS [3]: 13.03 mg/dL
POTASSIUM [3]: 6.88 MEQ/L
SODIUM [3]: 142.57 MEQ/L
TOTAL BILIRUBIN [3]: 0.27 mg/dL
TOTAL PROTEIN [3]: 5.8 G/DL
